What is called IC50 is the concentration at which inhibition is half-maximal. In general, EC50 refers to the concentration that produces a half-maximal response.

Experimental findings from patent publication US20040127718A1, “Substituted imidazoles” (Novo Nordisk A/S, priority 2001, published 2004) are described below.

Assay [1] addresses T1, H3 receptor (Homo sapiens, UniProt Q9Y5N1).
T1 construct: expressed in transfected cells; pcDNA3)
The assay is described as follows: Binding Assay III: [125I]-iodoproxifan binding to membranes of h-H3-HEK 293 clones. The settings on record: 30 pM [125I]-iodoproxifan, h-H3-HEK 293 membranes. Here is the method:
The H3 receptor was cloned by PCR and subcloned into the pcDNA3 expression vector. Cells stably expressing the H3 receptor were generated by transfecting the H3-expression vectors into HEK 293 cells and using G418 to select for H3 clones. The h-H3-HEK 293 clones were cultured in DMEM with glutamax, 10% FCS, 1% Pen/Strep and 1 mg/ml G 418 at 37° C. and 5% CO2. Before harvesting, the confluent cells were rinsed with PBS and incubated with Versene for approximately 5 minutes. The cells were flushed with PBS and DMEM and the cellsuspension collected in a tube and centrifuged for 5-10 min at 1500 rpm in a Heraeus Sepatech Megafuge 1.0. The pellet was resuspended in 10-20 vol. Hepes buffer (20 mM Hepes, 5 mM MgCl2, pH 7.1 (KOH)) and homogenized for 10-20 seconds using a Ultra-Turrax homogenizer. The homogenate was centrifuged for 30 min at 23 000 g. The pellet was resuspended in 5-10 ml Hepes buffer, homogenized 5-10 seconds with the Ultra-Turrax and centrifuged for 10 min at 23 000 g. Following this centrifugation step, the membrane pellet was resuspended in 2-4 ml Hepes buffer, homogenized with a syringe or teflonhomogenizer, and the protein concentration determined. The membranes were diluted to a protein concentration of 1-5 mg/ml in Hepes buffer, aliquoted and kept at −80° C. until use. […]

The target of assay [2] is T1, H3 receptor. The assay is described as follows: Functional Assay: cAMP accumulation (Flash Plate) in HEK293 cells expressing the human H3 receptors. As to conditions: cAMP accumulation stimulated with isoprenaline, h-H3-HEK 293 cells. The format is cell-based. Here is the method: The ability of the compounds to interact with the histamine H3 receptor as agonists, inverse agonists and/or competitive antagonists, was determined by an in vitro functional assay utilizing membranes from HEK293 cell expressing the human H3 receptors.
The H3 receptor was cloned by PCR and subcloned into the pcDNA3 expression vector. Cells stably expressing the H3 receptor were generated by transfecting the H3-expression vectors into HEK 293 cells and using G418 to select for H3 clones. The h-H3-HEK 293 clones were cultured in DMEM with glutamax, 10% FCS, 1% Pen/Strep and 1 mg/ml G 418 at 37° C. and 5% CO2.
The H3 receptor expressing cells were washed once with phosphate buffered saline (PBS) and harvested using versene (GIBCO-BRL). PBS was added and the cells were centrifuged for 5 min at 188 g. The cell pellet was resuspended in stimulation buffer to a concentration of 1×10^6 cells/ml. cAMP accumulation was measured using the Flash Plate® cAMP assay (NEN™ Life Science Products). […] The plates were then sealed with plastic, shaken for 30 minutes, allowed to stand overnight, and finally the radioactivity was counted in the Cobra II auto gamma topcounter. EC50 values were calculated by non-linear regression analysis of dose response curves (6 points minimum) using GraphPad Prism. Kb values were calculated by Schild plot analysis.

T1 sequence (Q9Y5N1 whole entry): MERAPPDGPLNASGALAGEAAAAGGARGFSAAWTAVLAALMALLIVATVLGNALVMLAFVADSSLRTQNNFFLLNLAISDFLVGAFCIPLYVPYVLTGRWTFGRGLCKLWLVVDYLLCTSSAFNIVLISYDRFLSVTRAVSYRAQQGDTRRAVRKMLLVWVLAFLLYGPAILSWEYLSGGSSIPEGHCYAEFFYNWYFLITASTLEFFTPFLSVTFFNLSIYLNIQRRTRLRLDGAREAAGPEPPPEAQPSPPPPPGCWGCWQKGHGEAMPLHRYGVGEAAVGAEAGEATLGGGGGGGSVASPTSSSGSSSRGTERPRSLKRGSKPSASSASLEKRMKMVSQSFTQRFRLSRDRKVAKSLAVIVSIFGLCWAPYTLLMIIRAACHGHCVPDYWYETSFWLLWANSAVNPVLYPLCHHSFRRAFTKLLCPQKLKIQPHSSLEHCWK

With `Cc1[nH]cnc1CCCCOc1ccc2ccccc2c1` [Example 15/5, 5-Methyl-4-[4-(naphthalen-2-yloxy)-butyl]-1H-imidazole], the IC50 at H3 receptor [1] is under 100 nM. In addition, the EC50 on H3 receptor [2] is under 100 nM.

Compound `Cc1[nH]cnc1CCCOCc1cccc(I)c1` [Example 16/14, 4-[3-(3-Iodo-benzyloxy)-propyl]-5-methyl-1H-imidazole] registered an IC50 on H3 receptor [1] of under 50 nM. Further, the EC50 on H3 receptor [2] is under 50 nM.
